Source: US6399614B1, “1-(N-phenylaminoalkyl)piperazine derivatives substituted at position 2 of the phenyl ring” (Recordati S.A. Chemical and Pharmaceutical Company, priority 1997, dated 2002)
Where two headings read alike, the source gives them in different places.

Key:
[1] = test system: rhythmic bladder voiding contractions; assay: Volume-induced rhythmic bladder voiding contractions in anaesthetized rats; format: in vivo, rat; conditions: for ED (10 min disappearance of contractions) / ED50: Rattus norvegicus; for ED (10 min disappearance of contractions): read-out: ED10 min; for ED50: read-out: ED50 (frequency); for pharmacological activity on bladder voiding contractions (in words): nitro group at position 3 or 4 of the aniline ring
Procedure: Female Sprague Dawley rats weighing 225-275 g (Crl: CDo BR, Charles River Italia) were used. The animals were housed with free access to food and water and were maintained on a forced 12 h alternating light-dark cycle at 22-24° C. for at least one week, except during the experiment. The activity on the rhythmic bladder voiding contractions was evaluated according to the method of Dray (J. Pharmacol. Methods, 13:157, 1985), with some modifications as in Guarneri (Pharmacol. Res., 27:173, 1993). Briefly, rats were anesthetized by subcutaneous injection of 1.25 g/kg (5 ml/kg) urethane, after which the urinary bladder was catheterized via the urethra using PE 50 polyethylene tubing filled with physiological saline. The catheter was tied in place with a ligature around the external urethral orifice and was connected with conventional pressure transducers (Statham P23 ID/P23 XL). […] The bladder was then filled via the recording catheter by incremental volumes of warm (37° C.) saline until reflex bladder voiding contractions occurred (usually 0.8-1.5 ml). For intravenous (i.v.) injection of bioactive compounds, PE 50 polyethylene tubing filled with physiological saline was inserted into the jugular vein. From the cystometrogram, the number of contractions recorded 15 min before (basal values) and after treatment, as well as the mean amplitude of these contractions (mean height of the peaks in mmHg) was evaluated.
Since most compounds produced an effect that was relatively rapid in onset and led to a complete cessation of bladder contractions, bioactivity was conveniently estimated by measuring the duration of bladder quiescence (i.e., the duration of time during which no contractions occurred). The number of animals tested showing a reduction in the number of contractions >30% of that observed in the basal period was also recorded.
Also computed in this manner were extrapolated doses which induced a reduction of the number of contractions of greater than 30% in 50% of treated rats (ED50, frequency) by the method of Bliss (Bliss C. I., Quart. J. Pharm. Pharmacol. 11, 192-216, 1938). After the suppressive effects of drug injection wore off, the height of the contractile peaks was compared with the height of the peaks previously recorded after the control intravenous administration of vehicle. The potency of the tested compounds (ED50 value: the extrapolated doses inducing a 30% reduction of amplitude of the contractions in 50% of treated rats) was evaluated on a quantal basis by the method of Bliss (Bliss C. I., Quart. J. Pharm. Pharmacol. 11, 192-216, 1938).

[2] = test system: urinary bladder; assay: Cystometric parameters (cystometrogram) in conscious rats; format: in vivo, rat; conditions: for BVC after treatment / MP after treatment: mean ± S.E.; for change in vivo at 0.3 mg/kg / change in vivo at 1 mg/kg: Rattus norvegicus, iv, 0.25 h, after vs before; for change in vivo at 0.3 mg/kg: i.v. 300 μg/kg; for change in vivo at 1 mg/kg: i.v. 1000 μg/kg
Procedure: Male Sprague Dawley rats (Crl: CDo BR) weighing 250-350 g were used. The animals were housed with free access to food and water and maintained on a forced 12 h alternating light-dark cycle at 22-24° C. for at least one week, except during performance of the experiment. To quantify urodynamic parameters in conscious rats, cystometrographic studies were performed using procedures previously described (Guarneri et al., Pharmacol. Res., 24:175, 1991). […] An approximately 10 mm long midline incision was made in the shaved and cleaned abdominal wall. The urinary bladder was gently freed from adhering tissues, emptied, and then cannulated, via an incision at the dome, with a polyethylene cannula (Portex PP30), which was permanently sutured with silk thread. The cannula was exteriorized through a subcutaneous tunnel in the retroscapular area, where it was connected with a plastic adapter to avoid the risk of removal by the animal. For intravenous (i.v.) injection of test compounds, a PE 50 polyethylene tubing filled with physiological saline was inserted into the jugular vein and exteriorized in the retroscapular area. The rats were utilized exclusively one day after implantation. On the day of the experiment, the rats were placed in Bollman's cages, after a stabilization period of 20 min, and the free tip of the bladder catheter was connected through a T-shaped tube to a pressure transducer (Bentley T 800/Marb P 82) and to a peristaltic pump (Gilson minipuls 2) for a continuous infusion, at the constant rate of 0.1 ml/min, of saline solution into the urinary bladder. The intraluminal pressure signal during infusion was continuously recorded on a polygraph (Battaglia Rangoni KO 380 with ADCl/T amplifier).
Two urodynamic parameters were evaluated: bladder volume capacity (BVC) and micturition pressure (MP). BVC (in ml) is defined as the minimum volume infused after which detrusor contraction (followed by micturition) occurs. MP (in mm Hg) is defined as the maximal intravesical pressure induced by the contraction of detrusor during micturition. Basal BVC and MP values were calculated as the means of the first two recorded cystometrograms. At this point in the assay, the infusion was interrupted and the test compounds were administered. Fifteen minutes after intravenous administration two additional cystometrograms were recorded in each animal and the mean values of the two cystometrographic parameters were calculated. The statistical significance of the differences in urodynamic parameter values was evaluated by Student's t test for paired data.

[3] = molecular target: T1, human 5-HT1A serotonergic receptor (Homo sapiens, UniProt P08908); assay: Radioreceptor binding, recombinant human 5-HT1A receptors ([3H]8-OH-DPAT, HeLa membranes); conditions: recombinant human receptor, [3H]8-OH-DPAT; Ki from IC50 by Cheng & Prusoff; read-out: Binding affinity for the 5-HT1A receptor, Ki
T1 construct: expressed in transfected cells; host or cells: HeLa
T1 sequence (P08908 1-422): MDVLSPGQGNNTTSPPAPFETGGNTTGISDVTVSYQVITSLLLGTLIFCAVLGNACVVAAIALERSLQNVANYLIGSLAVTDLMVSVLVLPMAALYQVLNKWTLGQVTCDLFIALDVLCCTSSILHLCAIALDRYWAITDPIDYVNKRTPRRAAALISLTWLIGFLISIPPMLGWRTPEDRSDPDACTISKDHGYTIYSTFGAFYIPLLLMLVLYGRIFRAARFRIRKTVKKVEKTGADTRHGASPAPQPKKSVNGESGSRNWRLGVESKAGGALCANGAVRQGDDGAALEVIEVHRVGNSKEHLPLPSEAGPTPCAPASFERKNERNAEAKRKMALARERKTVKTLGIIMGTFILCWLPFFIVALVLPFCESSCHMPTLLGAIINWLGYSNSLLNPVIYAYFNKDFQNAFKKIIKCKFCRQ
Procedure: Genomic clone G-21 coding for the human 5-HT1A serotonergic receptor is stably transfected in a human cell line (HeLa). HeLa cells were grown as monolayers in Dulbecco's modified Eagle's medium (DMEM), supplemented with 10% fetal calf serum and gentamicin ([…]), 5% CO2 at 37° C. Cells were detached from the growth flask at 95% confluence by a cell scraper and were lysed in ice-cold 5 mM Tris and 5 mM EDTA buffer (pH 7.4). Homogenates were centrifuged at 40000×g×20 min and pellets were resuspended in a small volume of ice-cold 5 mM Tris and 5 mM EDTA buffer (pH 7.4) and immediately frozen and stored at −70° C. until use. On the day of experiment, cell membranes were resuspended in binding buffer: 50 mM Tris HCl (pH 7.4), 2.5 mM MgCl2, 10 μM pargiline (Fargin et al., Nature 335, 358-360, 1988). Membranes were incubated in a final volume of 1 ml for 30 min at 30° C. with 0.2-1 nM [3H]8-OH-DPAT, in absence or presence of competing drugs; non-specific binding was determined in the presence of 10 μM 5-HT. The incubation was stopped by addition of ice-cold Tris-HCl buffer and rapid filtration through 0.2% polyethyleneimine pretreated Whatman GF/B or Schleicher & Schuell GF52 filters.
The inhibition of specific binding of the radioligands by the tested drugs was analyzed to estimate the IC50 value by using the non-linear curve-fitting program Allfit (De Lean et al., Am. J. Physiol. 235, E97-E102, 1978). The IC50 value was converted to an affinity constant (Ki) by the equation of Cheng & Prusoff (Cheng, Y. C.; Prusoff, W. H. Biochem. Pharmacol. 22, 3099-3108, 1973).

[4] = extrapolated dose inducing 10 min of disappearance of the contractions, intravenous, anaesthetized rats
[5] = extrapolated dose inducing a reduction of the number of contractions >30% in 50% of treated rats, intravenous

SMILES: COc1ccccc1N1CCN(CCNc2ccccc2)CC1 [Compound AA, 1-(N-phenyl-2-aminoethyl)-4-(2-methoxyphenyl)piperazine, reference compound]
- ED (10 min disappearance of contractions) [1, 4]: 0.663 mg/kg
- ED50 [1, 5]: 0.244 mg/kg

SMILES: COc1ccccc1N1CCN(CCN(C(=O)C2CCCCC2)c2cccc([N+](=O)[O-])c2)CC1 [Compound B, 1-[N-(3-nitrophenyl)-N-cyclohexylcarbonyl-2-aminoethyl]-4-(2-methoxypheny)piperazine, reference compound]
- ED10 min [1, 4]: >1 mg/kg
- ED50 (frequency) [1, 5]: >1 mg/kg
- pharmacological activity on bladder voiding contractions (in words) [1]: pharmacological activity was abolished

SMILES: COc1ccccc1N1CCN(CCN(C(=O)C2CCCCC2)c2ccc([N+](=O)[O-])cc2)CC1 [Compound C, 1-[N-(4-nitrophenyl)-N-cyclohexylcarbonyl-2-aminoethyl]-4-(2-methoxyphenyl)piperazine, reference compound]
- ED (10 min disappearance of contractions) [1, 4]: > 1 mg/kg
- ED50 [1, 5]: > 1 mg/kg
- pharmacological activity on bladder voiding contractions (in words) [1]: pharmacological activity was abolished

SMILES: COc1ccccc1N1CCN(CCNc2cccc([N+](=O)[O-])c2)CC1 [Compound D, 1-[N-(3-nitrophenyl)-2-aminoethyl]-4-(2-methoxyphenyl)piperazine, reference compound]
- ED (10 min disappearance of contractions) [1, 4]: > 1 mg/kg
- ED50 [1, 5]: > 1 mg/kg

SMILES: COc1ccccc1N1CCN(CCNc2ccc([N+](=O)[O-])cc2)CC1 [Compound E, 1-[N-(4-nitrophenyl)-2-aminoethyl]-4-(2-methoxyphenyl)piperazine, reference compound]
- ED (10 min disappearance of contractions) [1, 4]: > 1 mg/kg
- ED50 [1, 5]: > 1 mg/kg

SMILES: COc1ccccc1N1CCN(CCNc2ccccc2[N+](=O)[O-])CC1 [Example 1, 1-[N-(2-nitrophenyl)-2-aminoethyl]-4-(2-methoxyphenyl)piperazine]
- ED (10 min disappearance of contractions) [1, 4]: 0.192 mg/kg
- ED50 [1, 5]: 0.055 mg/kg

SMILES: COc1ccccc1N1CCN(CCN(C(=O)C2CCCCC2)c2ccccc2I)CC1 [Example 8]
- BVC after treatment ([2]; 15 min after i.v. 300 μg/kg): 0.71 ± 0.05 mL
- MP after treatment ([2]; 15 min after i.v. 300 μg/kg): 98.3 ± 17.2 mmHg
- BVC after treatment ([2]; 15 min after i.v. 1000 μg/kg): 0.88 ± 0.12 mL
- MP after treatment ([2]; 15 min after i.v. 1000 μg/kg): 64.8 ± 10.5 mmHg
- change in vivo at 0.3 mg/kg ([2]; read-out: BVC % of change): 21%
- change in vivo at 0.3 mg/kg ([2]; read-out: MP % of change): -15%
- change in vivo at 1 mg/kg ([2]; read-out: BVC % of change): 35%
- change in vivo at 1 mg/kg ([2]; read-out: MP % of change): -20%
- Ki [3]: 0.36 nM

SMILES: O=C(C1CCCCC1)N(CCN1CCN(c2ccccc2OC(F)(F)F)CC1)c1ccccc1OC(F)(F)F [Example 72, 1-[N-cyclohexylcarbonyl-N-(2-trifluoromethoxyphenyl)-2-aminoethyl]-4-(2-trifluoromethoxyphenyl)piperazine]
- Ki [3]: 1.22 nM

SMILES: COc1ccccc1N1CCN(CCN(C(=O)c2cncs2)c2ccccc2[N+](=O)[O-])CC1 [Example 73]
- Ki [3]: 21.2 nM

SMILES: COc1ccc(Br)c(CN2CCN(CCNc3ccccc3OC(F)(F)F)CC2)c1 [Example 74, 1-[N-(2-trifluoromethoxyphenyl)-2-aminoethyl]-4-(2-bromo-5-methoxybenzyl)piperazine]
- Ki [3]: 2.02 nM

SMILES: O=C(C1CCCCC1)N(CCN1CCN(c2cccc3[nH]ccc23)CC1)c1ccccc1I [Example 76, 1-[N-cyclohexylcarbonyl-N-(2-iodophenyl)-2-aminoethyl]-4-(4-indolyl)piperazine]
- Ki [3]: 0.69 nM

SMILES: N#Cc1ccccc1N(CCN1CCN(c2ccccc2OC(F)(F)F)CC1)C(=O)C1CCCCC1 [Example 77, 1-[N-(2-cyanophenyl)-N-cyclohexylcarbonyl-2-aminoethyl]-4-(2-trifluoromethoxyphenyl)piperazine]
- Ki [3]: 0.58 nM

SMILES: COc1ccc(Br)c(CN2CCN(CCN(C(=O)C3CCCCC3)c3ccccc3C#N)CC2)c1 [Example 83, 1-[N-(2-cyanophenyl)-N-cyclohexylcarbonyl-2-aminoethyl]-4-(2-bromo-5-methoxybenzyl)piperazine]
- Ki [3]: 1.31 nM

SMILES: O=C(C1CCCCC1)N(CCN1CCN(c2cccc3c2ccn3C(=O)C2CCCCC2)CC1)c1ccccc1OC(F)(F)F [Example 84, 1-[N-cyclohexylcarbonyl-N-(2-trifluoromethoxyphenyl)-2-aminoethyl]-4-(1-cyclohexylcarbonyl-4-indolyl)piperazine]
- Ki [3]: 23.2 nM

SMILES: CS(=O)(=O)Nc1ccccc1N(CCN1CCN(c2cccc3[nH]ccc23)CC1)C(=O)C1CCCCC1 [Example 88, 1-[N-cyclohexylcarbonyl-N-(2-methanesulphonylaminophenyl)-2-aminoethyl]-4-(4-indolyl)piperazine]
- Ki [3]: 1.03 nM
